Article PMC7522982, “PKIS deep dive yields a chemical starting point for dark kinases and a cell active BRSK2 inhibitor” (Scientific Reports, 2020)

Columns and labels:
[1] = biological target: T1, MAP2K5/MEK5 (Homo sapiens, UniProt Q13163); assay: Eurofins kinase enzymatic LANCE assay; type: biochemical
T1 construct: purchased Eurofins
Excerpt: Due to our interest in the activity of GW296115 on several understudied IDG kinases, we collected full dose–response curves for all wild type kinases inhibited ≥ 75% in the DiscoverX panel that were offered by Eurofins. Having data in orthogonal formats is a powerful way to confirm inhibitory activity and adds rigor to our results. Eurofins has kinase enzymatic radiometric assays for 35 of the kinases on this list (Table S2) and a kinase enzymatic LANCE assay for one additional kinase (MAP2K5/MEK5).
Eurofins kinase enzymatic radiometric assays were carried out at the Km of ATP in dose–response (9-pt curve in duplicate) for each kinase for which it was offered.

[2] = biological target: PIM2 (Homo sapiens, UniProt Q9P1W9); design: purchased Eurofins; method as in earlier work; settings: cited from earlier work
[3] = biological target: T2, MAP2K5 (Homo sapiens, UniProt Q13163); assay: DiscoverX scanMAX competition binding assay
T2 construct: purchased Eurofins DiscoverX (scanMAX) / Eurofins enzymatic assays
Excerpt: Based on its narrow profile when tested in the combined Nanosyn and TSA panels, GW296115 was included in the recently released Kinase Chemogenomic Set (KCGS)[15]. All of the data presented in the Introduction section was collected prior to the inclusion of GW296115 in KCGS and everything that follows has been subsequently generated. Since its inclusion in PKIS and more recently KCGS, we have carried out a broader round of screening at DiscoverX. This profiling data has not been previously released and is reported here for the first time. GW296115 was profiled against 403 wild type human kinases at 1 μM using the DiscoverX scanMAX screening platform, which employs an active site-directed competition binding assay to quantitatively measure interactions between test compounds and kinases, [16]. GW296115 inhibited 25 kinases > 90% at 1 μM, resulting in a selectivity index (S10) of 0.062 at 1 μM (Table S2, Fig. 1C)[17].
The scanMAX assays were performed at Eurofins DiscoverX Corporation as previously described.

[4] = biological target: T3, NLuc-BRSK2 in HEK293 cells (Homo sapiens, UniProt Q8IWQ3); assay: BRSK2 NanoBRET cellular target engagement assay; type: cell-based; settings: HEK293 cells transiently expressing NLuc-BRSK2; Tracer K5 1 μM; N = 3; read-out: BRSK2 NanoBRET data IC50
T3 construct: host or cells: HEK293
T3 sequence (Q8IWQ3 1-736): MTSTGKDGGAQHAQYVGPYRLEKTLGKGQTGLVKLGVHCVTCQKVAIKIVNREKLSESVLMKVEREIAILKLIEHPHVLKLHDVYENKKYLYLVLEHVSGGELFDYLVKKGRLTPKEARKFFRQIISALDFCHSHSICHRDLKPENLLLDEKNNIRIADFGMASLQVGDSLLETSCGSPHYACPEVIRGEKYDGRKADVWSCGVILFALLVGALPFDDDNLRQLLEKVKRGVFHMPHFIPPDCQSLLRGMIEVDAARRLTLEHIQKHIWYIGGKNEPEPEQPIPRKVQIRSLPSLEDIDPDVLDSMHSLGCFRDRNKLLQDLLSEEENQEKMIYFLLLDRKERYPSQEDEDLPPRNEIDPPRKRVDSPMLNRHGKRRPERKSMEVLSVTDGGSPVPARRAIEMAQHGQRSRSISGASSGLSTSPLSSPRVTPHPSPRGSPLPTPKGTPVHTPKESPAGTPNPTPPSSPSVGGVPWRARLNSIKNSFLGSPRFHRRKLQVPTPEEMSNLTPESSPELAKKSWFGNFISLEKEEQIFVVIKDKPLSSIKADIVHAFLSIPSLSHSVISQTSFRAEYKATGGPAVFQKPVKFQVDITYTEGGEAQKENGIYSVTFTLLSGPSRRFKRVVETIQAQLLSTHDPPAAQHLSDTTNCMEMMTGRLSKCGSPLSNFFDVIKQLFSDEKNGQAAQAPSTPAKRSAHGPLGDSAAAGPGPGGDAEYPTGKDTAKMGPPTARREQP
Protocol: Our interest in illuminating BRSK2 biology motivated further investigation of the cellular target engagement of BRSK2 by GW296115 using our NanoBRET assay. BRSK2 kinase was fused to 19-kDa luciferase (NLuc) at its N-terminus (NLuc–BRSK2) which was transiently expressed in HEK293 cells, and then incubated with a cell-permeable fluorescent energy transfer probe (tracer)[23].
NanoBRET assays were executed as described previously. Constructs for BRSK2 NanoBRET measurements were provided in kind by Promega. The N-terminal Nanoluciferase (NL)/BRSK2 fusion (NL-BRSK2) was encoded in pFN32K expression vector, including flexible Gly-Ser-Ser-Gly linkers between NL and BRSK2 (Promega). For cellular BRSK2 NanoBRET target engagement experiments, a 10 μg/mL solution of DNA in Opti-MEM without serum (Gibco) was prepared with 9 μg/mL of Carrier DNA (Promega) and 1 μg/mL of NL-BRSK2 to achieve a total volume of 1.05 mL. To this solution was then added 31.5 μL of FuGENE HD (Promega) to form a lipid:DNA complex, mixed by inversion 8 times, and incubated at room temperature for 20 min. The resulting transfection complex (1.082 mL) was next gently mixed with HEK293 cells (21 mL) suspended at a density of 2 × 10^5 cells/mL in DMEM containing 10% FBS.
After 24 h, media was removed via aspiration and 85 μL of room temperature Opti-MEM without phenol red (Gibco) was added to each well. […] Next, 5 μL (20 × working stock of NanoBRET Tracer K5 [20 μM] in Tracer Dilution Buffer (Promega N291B)) was added to each well with the exception of the “no tracer” control wells. Test compounds were prepared as concentrated stock solutions in 100% DMSO (Sigma) at a concentration of 10 mM. […] A volume of 10 μL of tenfold test compound stock solutions (final assay concentration of […]) was added to each well. For “no compound” and “no tracer” control wells, 10 μL of Opti-MEM plus DMSO (9 μL Opti-MEM plus 1 μL DMSO) was added to each well to achieve a final concentration of 1% DMSO.
After 2 h, plates were returned to room temperature over the course of 15 min. […] Next, 50 μL of the 3 × substrate/extracellular NL inhibitor stock was added to each well.
Test compounds were evaluated at 8 concentrations in competition with NanoBRET Tracer K5 in HEK293 cells transiently expressing the NL-BRSK2 fusion protein. Raw milliBRET (mBRET) values were obtained by dividing the acceptor emission values (600 nm) by the donor emission values (450 nm), and then multiplying by 1000. Averaged control values were used to represent complete inhibition (no tracer control: transfected cells in Opti-MEM + DMSO; tracer control: transfected cells in Opti-MEM + DMSO + Tracer K5 only), and were plotted alongside the raw mBRET values. The data with n = 3 biological replicates was first normalized and then fit using Sigmoidal, 4PL binding curve in Prism Software (version 8, GraphPad, La Jolla, CA, USA).

T2 sequence (Q13163 whole entry): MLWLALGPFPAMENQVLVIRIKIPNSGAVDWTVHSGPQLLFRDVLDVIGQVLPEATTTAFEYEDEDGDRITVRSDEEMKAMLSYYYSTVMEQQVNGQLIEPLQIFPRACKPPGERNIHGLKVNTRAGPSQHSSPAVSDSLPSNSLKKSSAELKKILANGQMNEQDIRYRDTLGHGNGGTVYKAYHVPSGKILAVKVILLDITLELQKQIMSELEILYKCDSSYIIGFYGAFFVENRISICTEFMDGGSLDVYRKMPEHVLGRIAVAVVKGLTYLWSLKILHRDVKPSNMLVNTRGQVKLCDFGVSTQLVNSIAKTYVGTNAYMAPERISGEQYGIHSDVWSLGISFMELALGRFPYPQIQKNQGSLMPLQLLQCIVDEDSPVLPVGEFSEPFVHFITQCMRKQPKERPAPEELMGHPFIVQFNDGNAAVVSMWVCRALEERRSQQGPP
T1 sequence (Q13163 whole entry): as above
PIM2, sequence (Q9P1W9 whole entry): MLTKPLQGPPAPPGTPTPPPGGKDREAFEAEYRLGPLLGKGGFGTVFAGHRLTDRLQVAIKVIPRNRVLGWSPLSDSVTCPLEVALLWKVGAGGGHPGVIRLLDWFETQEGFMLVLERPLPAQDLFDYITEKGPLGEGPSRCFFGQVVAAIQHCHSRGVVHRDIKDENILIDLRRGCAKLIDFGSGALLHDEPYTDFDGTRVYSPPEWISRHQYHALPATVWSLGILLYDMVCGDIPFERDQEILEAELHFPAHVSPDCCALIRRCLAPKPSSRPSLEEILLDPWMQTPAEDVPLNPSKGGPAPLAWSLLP

## COc1ccc2[nH]c3c4[nH]c5ccc(OC)cc5c4c4c(c3c2c1)C(=O)NC4=O [GW296115]
[1]
  IC50: > 10 µM
[2]
  TSA ΔTm at 10 μM (°C): 9.8 °C
[3]
  inhibition at 1 µM: 99.5%
[4]
  IC50: 107 ± 28 nM
